Reference: patent US20030236302A1, “Synthetic derivatives” (priority 2002, published 2003)

Experiments:
[1] = test system: TNFα; test: TNFα production in IFN-primed, SAC-stimulated THP-1 cells (ELISA); assay type: cell-based, Human; details: THP-1 cells primed by IFNα (100 U/mL) 22 h, stimulated with 0.025% SAC, supernatants after 24 h
Protocol: (§1) Human monocytic THP-1 cells were primed by IFNα (100 U/mL) for 22 h and then stimulated with 0.025% SAC in the presence of different concentrations of a test compound. The test compounds were prepared in DMSO and the final DMSO concentration was adjusted to 0.25% in all cell cultures, including the compound-free control. Supernatants from the cultures were removed after 24 h, and assayed for productions of IL-12 and […]. Cell viability was assessed using the bioreduction of MTS [3-(4,5-dimethylthiazol-2-yl)-5-(3-carboxymethoxyphenyl)-2-(4-sulfophenyl)-2H-tetrazolium] (Promega, Madison, Wis.), with cell survival estimated as the ratio of the absorbance in compound-treated groups versus compound-free control. Human IL-12 p70 (heterodimer) and TNFα were assayed using ELISA kit from Endogen (Cambridge, Mass.), according to the manufacturer's instructions.

[2] = test system: Human IL-12 p70 (heterodimer); test: IL-12 production in IFN-primed, SAC-stimulated THP-1 cells (ELISA); assay type: cell-based; details: THP-1 cells primed by IFNα (100 U/mL) 22 h, stimulated with 0.025% SAC, supernatants after 24 h
Protocol: as §1

[3] = Cell viability by MTS bioreduction; assay type: cell-based, Human; details: human, THP-1 monocytic cells (IFNα-primed, SAC-stimulated), THP-1 cells, survival vs compound-free control, read-out: CC50 (μM) Cell Toxicity
Protocol: as §1

[4] = test system: Human monocytic THP-1 cells; test: Cell viability by MTS bioreduction; assay type: cell-based; details: survival vs compound-free control, read-out: CC50 (μM) Cell Toxicity
Protocol: as §1

Compound	IC50 ([1]; Homo sapiens)	IC50 ([2]; Homo sapiens)	IC50 [2]	IC50 [1]	CC50 at 24 h [3]	CC50 [4]
O=C1CC(=O)O[C@@H](CCc2ccc(F)cc2)C1 [Compound 2, 6-[2-(4-Fluoro-phenyl)-ethyl]-dihydro-pyran-2,4-dione]	30 µM	30 µM			> 100 µM	
O=C1CC(=O)O[C@@H](CCc2ccccc2F)C1 [Compound 3, (S)-6-[2-(2-fluoro-phenyl)-ethyl]-dihydro-pyran-2,4-dione]	40 µM	70 µM				
O=C1CC(=O)O[C@@H](CCc2cccc(F)c2)C1 [Compound 4, (S)-6-[2-(3-Fluoro-phenyl)-ethyl]-dihydro-pyran-2,4-dione]	20 µM	40 µM			> 100 µM	
O=C1C=C(O)CC(/C=C/c2cccnc2)O1 (stereo not shown) [Compound 5, 6-(2-pyridin-3-yl-vinyl)-dihydro-pyran-2,4-one]	100 µM	80 µM			> 100 µM	
O=C1C=CC[C@H](CCc2cccc(F)c2)O1 [Compound 11, S-6-[2-(3-Fluoro-phenyl)-ethyl]-5,6-dihydro-pyran-2-one]	5 µM	10 µM			100 µM	
COc1cc(CC[C@H]2CC=CC(=O)O2)cc(OC)c1OC [Compound 12, S-6-[2-(3,4,5-trimethoxylphenyl)-ethyl]-5,6-dihydro-pyran-2-one]	25 µM	10 µM			100 µM	
COC1=CC(=O)OC(C=Cc2ccc(C#N)cc2)C1 (stereo not shown) [Compound 13, 6-[2-(4-cyano-phenyl)-vinyl]-4-methoxy-5,6-dihydro-pyan-2-one]			80 µM			> 100 µM
COC1=CC(=O)OC(/C=C/c2ccc(F)c(F)c2)C1 (stereo not shown) [Compound 14, 6-[2-(3,4-difluoro-phenyl)-vinyl]-4-methoxy-5,6-dihydro-pyan-2-one]	70 µM	70 µM			> 100 µM	
COC1=CC(=O)OC(/C=C/c2ccc(F)c(F)c2F)C1 (stereo not shown) [Compound 15]	60 µM	90 µM			> 100 µM	

Continued, in another order:

IC50 ([1]; Homo sapiens)	IC50 ([2]; Homo sapiens)	IC50 [2]	IC50 [1]	Compound	CC50 at 24 h [3]	CC50 [4]
40 µM	30 µM			O=C1CC(=O)O[C@@H](CCc2ccccc2)C1 [Compound 1, S-(+)-6-Phenethyl-dihydro-pyran-2,4-dione]	> 100 µM	
100 µM	70 µM			COC1=CC(=O)OC(CCc2ccc[nH]2)C1 (stereo not shown) [Compound 6, 4-Methoxy-6-[2-(1H-pyrrol-2-yl)-ethyl]-5,6-dihydro-pyran-2-one]	> 100 µM	
62 µM	38 µM			COC1=CC(=O)O[C@@H](CCc2ccccc2F)C1 [Compound 7, (S)-6-[2-(2-Fluoro-phenyl)-ethyl]-4-methoxy-5,6-dihydro-pyran-2-one]	> 100 µM	
70 µM	65 µM			COC1=CC(=O)O[C@@H](CCc2cccc(F)c2)C1 [Compound 8, (S)-6-[2-(3-Fluoro-phenyl)-ethyl]-4-methoxy-5,6-dihydro-pyran-2-one]	> 100 µM	
100 µM	86 µM			COC1=CC(=O)O[C@@H](CCc2ccc(F)cc2)C1 [Compound 9, (S)-6-[2-(4-Fluoro-phenyl)-ethyl]-4-methoxy-5,6-dihydro-pyran-2-one]	> 100 µM	
13 µM	10 µM			O=C1C=CC[C@H](CCc2ccccc2)O1 [Compound 10, (S)-6-Phenethyl-5,6-dihydro-pyran-2-one]	100 µM	
80 µM	80 µM			COC(=O)c1ccc(CCC2CC(OC)=CC(=O)O2)cc1 (stereo not shown) [Compound 16, 4-[2-(4-methoxy-6-oxo-3,6-dihydro-2H-pyran-2-yl)-ethyl]-benzoic acid methyl ester]	> 100 µM	
		80 µM	80 µM	COC1=CC(=O)OC(CCc2ccc(F)c(F)c2)C1 (stereo not shown) [Compound 17, 6-[2-(3,4-difluoro-phenyl)-ethyl]-4-methoxy-5,6-dihydro-pyan-2-one]		> 100 µM
		80 µM	70 µM	COC1=CC(=O)OC(CCc2ccc(F)cc2)C1 (stereo not shown) [Compound 18, 6-[2-(4-fluoro-phenyl)-ethyl]-4-methoxy-5,6-dihydro-pyan-2-one]		> 100 µM
70 µM	70 µM			CC(C)OC1=CC(=O)O[C@@H](CCc2ccccc2)C1 [Compound 19, S-(+)-4-isopropoxy-6-phenethyl-5,6-dihydro-pyran-2-one]	> 100 µM	
100 µM	80 µM			CCOC1=CC(=O)O[C@@H](CCc2ccccc2)C1 [Compound 20, (S)-4-Ethoxy-6-phenethyl-5,6-dihydro-pyran-2-one]	> 100 µM	
80 µM	100 µM			COC1=CC(=O)O[C@@H](CCc2cccnc2)C1 [Compound 21, 4-Methoxy-6-(2-pyridin-3-yl-ethyl)-5,6-dihydro-pyran-2-one]	> 100 µM	
